From patent US20230032934A1, “METHOD OF PRODUCING TUMOR-REACTIVE T CELL COMPOSITION USING MODULATORY AGENTS” (Myst Therapeutics, LLC, priority 2019, published 2023)
Entries after “also recorded” stand apart in the source; their conditions may differ. Where a SMILES comes first, the peptide text is derived from it. The star is where a group is joined. Cbz = O=C(OCc1ccccc1)*; CH2F = FC*

What was measured:
[1] = test system: PBMC from two healthy donors; experiment: T cell expansion with FasL blockade or caspase inhibition, anti-CD3/anti-CD28 bead stimulation (transient or continuous activation); format: cell-based, human
Protocol: Cells were then seeded into a 24-well gas permeable cell culture plate at a density of 1.5×10^5 cells/mL (5.0×10^5 cells/cm^2).
Culture wells were assigned to one of two treatment groups, transient or continuous activation. For transient activation, anti-CD3/anti-CD28 paramagnetic beads (Dyanbeads™) were added to the culture media at a ratio of 1 bead per cell starting on culture day 0, and then were removed during media exchange on day 2. For continuous activation, anti-CD3/anti-CD28 paramagnetic beads (Dyanbeads™) were added to the culture media at a ratio of 1 bead per cell starting on culture day 0, and then added again on Day 4, and again on Day 6 at a ratio of 1 bead per cell. The anti-CD3/anti-CD28 paramagnetic beads were not removed on Day 2, 4 or 6.
For both the continuous and transient activation, culture wells were assigned to one of five treatment groups as described above for 10 conditions total per donor.
Cell counts and viability were monitored every other day. When cells reached 3×10^6 cells/ml, 1.5×10^6 cells were sub-cultured into a new well of a 24-well gas permeable culture plate with 7 mL final volume of medium and the culture continued as described above.

[2] = test system: expanded human T cells from three healthy donors; experiment: Effect of T cell adjuvants on T cell viability (total viable CD3+ cell count, with and without OKT3); format: cell-based; conditions: 10 μg/mL for antibodies, 25 μM for Z-VAD-FMK; 6 days; irrespective of activation status
Protocol: Cells were expanded from PBMC derived from Ficoll gradient separation from three healthy donor's apheresis material. […] Because the studies were carried out in healthy donors, stimulation of the T cells was carried out with anti-CD3 (OKT3) stimulation in order to mimic conditions present in the tumor microenvironment (TME).
Cells were next seeded into gas permeable 100M culture vessels and expanded for 7-14 days to achieve a large bank of T cells, and cryopreserved. […] Half of wells were additionally supplemented with 50 ng/mL OKT3, a human anti-CD3 monoclonal antibody. In total, 15 test adjuvant agents were tested for their impact on cell viability in the presence and absence of anti-CD3 activation (see Table E3). Cells were cultured for 6 days total, including a 50% medium exchange on culture day 3, and monitored for total viable CD3+ cell count.
Total viable CD3+ cell count for cells grown in the absence and presence of OKT3 stimulation are shown in FIGS. 27A-C and FIGS. 28A-C, respectively. The results shown are for the following concentrations of adjuvant: 10 μg/mL for tested antibodies (Tavolixizumab, Oxelumab, Ipilimumab, Tocilizumab, Urelumab, Pembrolizumab, Varlilumab, anti-GITR MK-1248, anto-human FasL); 25 μM for Z-VAD-FMK pan-caspase inhibitor; 250 nM for HSP inhibitor NVP-HSP990; and 1000 IU/mL for cytokine (IL-7, IL-15, IL-21, IL-23, IL-25, IL-27, or IL-35)).

[3] = test system: CRC tumor fragment or SCS cultures; experiment: Caspase inhibition in tumor processing (tumor fragment and SCS cultures); format: cell-based, human; conditions: 2 μM replenished at each media exchange
Protocol: Half of cultures contained media additionally supplemented with 2 μM of pan-caspase inhibitor Z-VAD-FMK which was replenished at each media exchange. Cultures were incubated at about 37° C. for a minimum of 18 days with a 50% medium exchange occurring every 2-3 days following culture day 5. Cell counts were performed on day 5 and at each medium exchange using the NC-200 Automated Cell Counter (ChemoMetec).

[4] = test system: expanded human T cells from three healthy donors; experiment: Cytokines, modulators and agonist antibodies with IL-2 on T cell number and naive/central memory phenotype; format: cell-based
Protocol: PBMC from three healthy donors were activated, expanded, and cryopreserved as described in Example 11. […] As previously described, stimulation of the healthy donor T cells prior to cryopreservation were carried out with anti-CD3 (OKT3) stimulation in order to mimic conditions present in the tumor microenvironment (TME).
Cells were next seeded into gas permeable 100M culture vessels and expanded for 7-14 days to achieve a large bank of T cells, and cryopreserved.
Cells were maintained in culture for 6 days, with a 50% medium exchange occurring at 3 days post culture initiation.
At the end of the culture period for all culture conditions, cells were assessed for cell count and sub-phenotypes of naïve and central memory T cells by flow cytometry by staining with CD45RA and CCR7 (naïve, CD45RA+ CCR7+; “central” memory, CD45RA− CCR7+).

[5] = test system: PBMC from three healthy donors; experiment: T cell expansion with FasL blockade or caspase inhibition, anti-CD3 (OKT3) stimulation; format: cell-based, human; conditions: OKT3 activation; agent replenished at each media exchange (continuous); 2 μM Z-VAD-FMK or 500 ng/ml NOK-1
Protocol: Apoptotic inhibitors directed against Fas- and caspase-mediated pathways were assessed to determine effects on tumor reactive T cells during manufacturing. The studies were carried out in healthy donors, and thus, stimulation of the T cells were carried out with anti-CD3 (OKT3) or anti-CD3/anti-CD28 stimulation in order to mimic conditions present in the tumor microenvironment (TME). Constant activation signals present in the tumor microenvironment, as can be stimulated by anti-CD3 or anti-CD3/anti-CD28 activation can be detrimental to T cell growth. Cellular viability and projected cell numbers were used to compare the impact of modulation of apoptotic pathways in both a transient and a continuous activation assay, the latter of which more closely recapitulates the tumor microenvironment.
Cells were then seeded into a 24-well gas permeable cell culture plate at a density of 2.14×10^5 cells/mL (7.5×10^5 cells/cm^2). Cells were activated for 48 hours using 50 ng/ml OKT3, a human anti-CD3 monoclonal antibody, and were additionally treated with agents as described below. […]
Cultures were maintained for at least 13 days with a 50% media exchange every other day beginning on culture day 2. Cell counts and viability were monitored every other day. […]

[6] = test system: T-cells from three healthy donors; experiment: Activation markers on CD4+ and CD8+ T cells after OKT3 activation, flow cytometry; format: cell-based, human; conditions: 50 ng/mL OKT3 vs no OKT3; 3-48 hours
Protocol: Specific markers of activation on the CD4+ and CD8+ cell populations were measured using flow cytometry over a time course of 3-48 hours. Specifically, the following markers were assessed: CD38 and CD39 (FIG. 12A and FIG. 13A), CD134 and CD137 (FIG. 12B and FIG. 13B), and CD69 and CD90 (FIG. 12C and FIG. 13C).

[7] = test system: cells processed from melanoma tumor fragments; experiment: Anti-CD3 (OKT3) stimulation on expansion of melanoma tumor-derived cells; format: cell-based, human
Protocol: Cells processed from melanoma tumor fragments as described in Examples 1 and 2, were cultured in the presence or absence of 50 ng/mL OKT3, a human anti-CD3 monoclonal antibody. Cell cultures were carried out to between 14 and 31 days, such as between 14 and 21 days, in either a conventional 6-well plate or a gas permeable culture plate with RPMI or OpTmizer media. […] About 50% of cellular media was exchanged every other day beginning on the 5th day of culture as described previously. Cells were then counted using the NC-200 Automated Cell Counter (Chemometec).

| Compound | total viable cell number and viability ([1]; agent continuous, listed as caspase inhibitor) | total viable cell number and viability ([1]; agent transient (day 0 only)) | viable cell counts versus DMSO treatment control [2] | cell viability ([3]; SCS culture) | outgrowth of T cells ([3]; SCS culture) | cell viability ([3]; tumor fragment-derived culture) | outgrowth of cells (fold expansion, total viable cells) ([3]; tumor fragment-derived culture) | percent of naïve and central memory T cells compared to IL-2 alone ([4]; 0.2 μg/mL-50 μg/mL, Day 6) | CD3+ cells/mL on Day 6 compared to IL-2 alone ([4]; concentrations higher than 0.2 μg/mL) | cell growth (total cell number) [5] | upregulation of activation markers CD38, CD39, CD134, CD137, CD69, CD90 on CD4+ T cells [6] | upregulation of activation markers CD38, CD39, CD134, CD137, CD69, CD90 on CD8+ T cells [6] | total cell number and fold expansion ([7]; 50 ng/mL OKT3 vs no OKT3, with 300 or 6000 IU/mL IL-2, 14-31 days) | fold expansion ([7]; Donor 6, presence or absence of anti-CD3 stimulation, all conditions) |
| --- | --- | --- | --- | --- | --- | --- | --- | --- | --- | --- | --- | --- | --- | --- |
| COC(=O)C[C@H](NC(=O)[C@H](C)NC(=O)[C@@H](NC(=O)OCc1ccccc1)C(C)C)C(=O)CF [Z-VAD-FMK, carbobenzoxy-valyl-alanyl-aspartyl-[O-methyl]-fluoromethylketone] (Cbz-Val-Ala-Asp(OMe)-CH2F) | outperformed the other conditions; also recorded: outperforming the transient condition | outperformed the other conditions | consistently higher viable cell counts | similarly high | not observed | also high | superior | no effect | substantially increased | greatest cell growth | – | – | – | – |
| OKT3: a human anti-CD3 monoclonal antibody | – | – | – | – | – | – | – | – | – | – | all assessed markers were upregulated to some extent | all assessed markers were upregulated to some extent | did not substantially impact; also recorded: largely similar | 2-4 fold |
